This is an account of results in US11541237B2, “Methods for improving shoulder range of motion and functionality” (priority 2013, dated 2023).

Some results are limits rather than exact numbers.

Data set [1] relates to A (delta) and C sensory fibers. To be noted: cited from earlier work; for sensory blocking properties: compared with the corresponding R (dextro)-enantiomers.
For data set [2] the following is noted: cited from earlier work.
Another data set relates to radial nerve. Nature of the data set: Injection in fanlike distribution of the radial nerve, patient with CRPS of right hand (Example 3). The format is in vivo, human. The note with it: single treatment, bupivacaine 0.25% (3 ml). The text has this: A patient with CRPS and severe pain, including pins and needles sensation in their right hand for over 20 years, presented with these symptoms and major discoloration in their right arm due to compartment syndrome many years ago and could barely open and close their fist.

For data set [3], the system named is facial pain / facial neuropathies. As to the kind of experiment: Intranasal local anesthetic in patients with facial pain after facial trauma (Examples 4-6). It is filed as in vivo, human. Here is the method:
A patient had severe facial pain following a large metal beam impact which left them with facial neuropathies and headache that adversely affected their ability to eat and speak was treated with intranasal bupivacaine 0.5% (4 ml). […] They improved with subsequent repeat treatments and was able to perform job and daily activities normally. […] A patient with severe facial pain resulting from being hit in the face with a pipe that caused four facial fractures, for seven years had numbness in certain areas of their face and severe pain in the area of their left eye, as well as generalized facial and head pain. They were treated with intranasal bupivacaine 0.5% (4 ml). […] A patient had sustained facial nerve injuries from a close range gunshot wound to the face. They were in excruciating pain and could not speak or eat without severe duress. […] They had been in agony for over 5 years previous to this treatment.

Data set [4] has as its system Supratrochlear nerve / occipital nerves with SPG. Nature of the data set: Injection of supratrochlear or occipital nerves combined with SPG block. It is filed as in vivo, human. The text has this: Another aspect of the invention is the combination of stimulation of SPG with branches of Trigeminal nerves, or occipital nerves. There is known C-2 and 3 connection with Trigeminal nerve and SPG and likely with C1.

Data set [5] has as its system suprascapular nerve. As to the kind of experiment: Fanlike injection in the vicinity of the suprascapular nerve, patient with pain and decreased range of motion after rotator cuff repair (Example 1). It is filed as in vivo, human. The note with it: many months after torn rotator cuff repair, lidocaine 1% (3 ml). As for the experimental part: A patient with pain and decreased range of motion for many months following repair of a torn rotator cuff, was treated using a fanlike injection of lidocaine 1% (3 ml) merely in the vicinity of the suprascapular nerve, hitting small fibers in the area.
This block differs from classic suprascapular block in that the area around the nerve was targeted and treated, rather than the nerve itself. This procedure was easier to perform than trying to block the suprascapular nerve directly, which would have been much more difficult to target or specific, direct treatment. In terms of neurostimulation, or blocking with energy sources such as light, laser, infrasound or electricity, it means that transcutaneous methods can work well by targeting the area around a major nerve, or merely within its general area of innervation, and not necessarily the nerve itself.

Data set [6] relates to suprascapular nerve. Nature of the data set: Direct suprascapular injection and subsequent fanlike injection, patient with CRPS of left arm and hand with frozen shoulder syndrome (Example 7). The format is in vivo, human. The note with it: lidocaine 1% (4 ml) together with methylprednisolone acetate (10 mg), direct suprascapular then fanlike injection, a few treatment sessions. The text has this:
A patient had severe CRPS of the left arm and hand with frozen shoulder syndrome and severe edema, allodynia coldness and nail changes involving their left hand for over 18 months. Their condition is shown in the photographs of FIGS. 6 and 7. They failed all therapies to the time of presentation.

The conditions of data set [7]: intranasally administered; cited from earlier work.
A further data set relates to saphenous nerve. As to the kind of experiment: Saphenous nerve injection, patient with severe leg and foot pain due to surgical trauma (Example 2). The format is in vivo, human. To be noted: ropivacaine 0.25% (5 ml). As for the experimental part:
A patient with severe leg and foot pain for several years due to prior surgical trauma resulting from an initial bunionectomy and other follow-up surgeries was treated by a saphenous nerve injection of ropivacaine 0.25% (5 ml) after exquisite tenderness was noted on palpation of the saphenous nerve greater than 14 cm proximal to the level of their foot trauma. However, much of their symptomatology was in the distribution of other nerves. Indeed, they had motor dysfunction of the toes and their saphenous nerve is a purely sensory nerve. […] They could walk like they had not in many years.

The subject of a further data set is migraine. The note with it: direct application to region of nasal epithelium overlying the SPG using a cotton swab, versus drip and spray methods; cited from earlier work.
Setting [8] is: Example 4, patient, metal beam impact, intranasal bupivacaine 0.5% (4 ml).

`CCCN1CCCC[C@H]1C(=O)Nc1c(C)cccc1C` (single isomer, unassigned) [S (levo)-enantiomer of ropivacaine]: the sensory blocking properties result in data set [1] was “better sensory blocking properties”.

Consider `CCCCN1CCCC[C@H]1C(=O)Nc1c(C)cccc1C` [S (levo)-enantiomer of bupivacaine], for which, in [1], the sensory blocking properties result is listed as “better sensory blocking properties”. Also, the physiological toxicity result in data set [2] (compared with the corresponding R (dextro)-enantiomers) is given as “lower physiological toxicity”.

Turning to `CCCCN1CCCCC1C(=O)Nc1c(C)cccc1C` (stereo not drawn) [bupivacaine], the “symptoms and hand function” value in the data set with radial nerve (patient with CRPS over 20 years, fanlike distribution of radial nerve) was “felt dramatically better and could open and close their hand and make and maintain a fist”. Moreover, the “neurotrophic findings of decreased temperature, edema, allodynia, discoloration and severe restriction of range of motion” value with radial nerve (patient with CRPS) is reported as “decreased dramatically”. Moreover, the relief of pain result in data set [3] (setting [8]) is reported as “almost complete relief of pain”; in [3] (Example 5, patient, intranasal bupivacaine 0.5% (4 ml)), “complete relief of pain”. Also, the “time to reported pain relief” value in data set [3] (setting [8]) was not above 3 min; in [3] (Example 5, patient, four facial fractures, pain for seven years, intranasal bupivacaine 0.5% (4 ml)) it was not above 1 min. For the same compound, in data set [3] (Example 4, patient, intranasal bupivacaine 0.5% (4 ml)), the “ability to open mouth, eat and speak” value was “could open their mouth wide, eat normally and could speak for normal periods of time and at normal volume”. Further, in [3] (Example 6, patient, gunshot wound to the face, intranasal bupivacaine 0.5% (3-4 ml) monthly, several years follow up), the pain management entry is recorded as “manages their pain well”. Besides, the adverse sequela entry in data set [3] (Example 6, intranasal bupivacaine 0.5% (3-4 ml) monthly, several years follow up) is listed as “no adverse sequela”. For the same compound, in [4] (injection of bupivacaine 0.5% to the Supratrochlear nerve), the “result of subsequent SPG block” value is on record as “better result with SPG block subsequently”. Also, the headache result in [4] (injection of occipital nerves with 0.5%, with SPG block) is reported as “headache was further decreased with SPG block”.

`CCN(CC)CC(=O)Nc1c(C)cccc1C` [lidocaine]: the “pain and range of motion” value with suprascapular nerve [5] was “remarkable improvement in pain and range of motion”. For the same compound, the “symptoms and findings of CRPS (frozen shoulder, edema, allodynia, coldness, nail changes)” value in the data set with suprascapular nerve [6] is “completely reversed these symptoms and findings”. Further, the duration of action entry in data set [7] is recorded as “shorter than about one hour”.

For `CCCN1CCCC[C@H]1C(=O)Nc1c(C)cccc1C` [ropivacaine], in the data set with saphenous nerve, the relief of pain entry is listed as “almost complete relief of pain”; the “sensation and strength in the distribution of other peripheral nerves, including the peroneal nerves” value was “normalized sensation and strength”; the “time to reported pain relief” value was not above 10 min. Moreover, the “block of nerve fibers such as A (delta) and C sensory fibers versus motor neurons” value in data set [1] (compared with bupivacaine) is listed as “more preferentially than other neurons such as motor neurons”. Also, the inhibition of migraine result with migraine is “most rapid and most effective inhibition of migraine”. The “cardiovascular and central nervous system toxicity” value in data set [2] (compared with bupivacaine) was “lower cardiovascular and central nervous system toxicity than bupivacaine”. For the same compound, in data set [2] (compared with other similar relatively long acting potent local anesthetics), the systemic toxicity profile entry was “better systemic toxicity profile”.
